Laboratory results reported in patent publication US10537583B2, “Oral formulation of A-nor-5α androstane compound” (priority 2014, dated 2020).
Like-named read-outs stand apart in the source and are kept apart here.

How the values were obtained:
[1] = 37° C., 72 hours, n = 3
Protocol: Phosphate buffer solution (PBS) with different pH was prepared (pH is 1.0, 5.0, 5.5, 5.8, 6.0, 6.8 and 7.4). The equilibrium solubility of A-nor-5α androstane compounds (Ia) in PBS with different pH was determined by using Equilibrium Method. Method: 5 mL of each medium was removed into test tubes with plug and about 30 mg of crude drugs comprising A-nor-5α androstane compounds were added into the tubes respectively. The tubes were subjected to a thermostatic oscillator (37° C.) and vibrated at 100 rpm. After 72 hours, the sample was taken and subjected to HPLC analysis.

[2] = for Ka (absorption rate constant) / P (cumulative absorption percentage) / Q (absorption dose in 2 hours): n = 3
Protocol: A suitable concentration of intestinal circulating liquid comprising A-nor-5α-androstane compounds (Ia) was prepared by using PBS (pH 5.5 and pH 6.8) containing phenol red. Rats were fasting over 12 hours before the experiment and then subjected to intraperitoneal injection with urethane solution (dose 4 mL/kg) at a concentration of 0.3 g/ml for anesthesia. The rats were fixed and a 3 cm incision was made along the medioventral line. The duodenum (start from 1 cm below the pyloru, intestinal circulating fluid comprising A-nor-5α androstane compound, pH 5.5), the jejunum (start from […], intestinal circulating fluid comprising A-nor-5α androstane compound, pH 6.8), and the ileum (start from 30 cm below the pylorus, intestinal circulating fluid comprising A-nor-5α androstane compound, pH 6.8) were incubated and ligated. Preheated saline (37° C.) was used to clean the intestinal contents, and then the air (37° C.) was ventilated into the intestine to remove the saline. The wound was covered with dressing, and infrared lamp was used to keep warm (37° C.). The reflux device was connected and after 50 ml of drug-containing circulating fluid at a constant temperature of 37° C. was balanced at 3 mL/min for 5 min, timing was started when the flow rate was adjusted to 1 mL/ml. Samples (1 mL for each) were taken at 0, 15, 30, 45, 60, 90, and 120 min, while adding blank circulating fluid (1 mL). The sample was subjected to HPLC analysis after appropriate treatment. The volume of circulating fluid was corrected according to the concentration of phenol red. Then the remained amounts of drug X were calculated by the concentration of A-nor-5α androstane compounds and the volume of circulating fluid. Line slope is the absorption rate constant (Ka) of a drug. The cumulative absorption percentage (P) of the drug is obtained by comparing the absorption dose (Q) of a drug in 2 hours to the initial dose (X0) before absorption.

[3] = n-octanol, 37° C., n = 3
Protocol: PBS with different pH was prepared, and oil-water partition coefficient of A-nor-5α androstane compound (Ia) in a buffer solution with different pH (e.g., 2.0, 4.5, 5.0, 6.0, 6.8, 7.4, respectively) was determined by shake-flask method. Water-saturated n-octanol was used to prepare a stock solution of A-nor-5α androstane compound, concentration of which was about 10 mg/mL. A variety of n-octanol-saturated PBS and aqueous solution (5 ml) was taken and added into glass tubes with plug. 0.5 mL of stock solution of A-nor-5α-androstane compound was added. The tubes were sealed completely and subjected to a 37° C. thermostatic oscillator, and sampled after shaking for 24 h. Samples from water phase and oil phase were taken for analysis by HPLC, respectively. The drug concentrations in water and oil phase were calculated. According to […], oil-water partition coefficient (Log P) was calculated and the results are shown in Table 2.

Caco-2 cells [4] = system: Caco-2 cells
Protocol: Caco-2 cells were spotted on a six-well plate. When the cells were grown to an inoculation density of 8×10^4 cells/mL, the cells were cultured with the drug-containing medium. The relationship between cells uptake and uptake time, the concentration of A-nor-5α-androstane compound (Ia) were examined. After the experiment was completed, the cells were scraped off and the cells were broken by multiple freezing-thawing. The samples of the cells were precipitated by acetonitrile and then subjected to HPLC analysis.

Caco-2 cells [5] = system: Caco-2 cells; remark: listed apart in the source
Protocol: The qualified Transwell plate was taken. The nutrient solution comprising drugs was prepared by using Hank's balanced salt solution (HBSS) to study the bidirectional transfer of A-nor-5α-androstane compounds (Ia) with different concentrations in Caco-2 cells.

[6] = Beagle dogs, 1.0 mg/kg by gastric gavage
[7] = Excerpt: It mainly relies on passive diffusion mechanism for transport, uptake and absorb in the body and the uptake amounts are dependent on the time and dose. A-nor-5α-androstane compound can be administered by oral pathway. […] Therefore, an oral formulation, such as ordinary oral tablet, oral capsule and other sustained-release preparation, is designed according to the present invention.
[8] = rat duodenum, circulating fluid pH 5.5
[9] = rat ileum, circulating fluid pH 6.8
[10] = rat jejunum, circulating fluid pH 6.8
[11] = rat jejunum, concentration 25.0 μg/mL
[12] = rat jejunum, concentration 50.0 μg/mL
[13] = rat jejunum, concentration 100.0 μg/mL

Compound: C#C[C@@]1(O)C[C@@H]2CC[C@@H]3[C@H](CC[C@@]4(C)[C@H]3CC[C@@]4(O)C#C)[C@@]2(C)C1 [Ia, 2α, 17α-diethynyl-A-nor-5α-androstane-2β, 17β-dihydroxy compound]
- equilibrium solubility ([1]; pH 1.0 hydrochloric acid): 7.85 ± 0.57 µg/mL
- equilibrium solubility ([1]; pH 5.0 PBS): 14.73 ± 0.80 µg/mL
- equilibrium solubility ([1]; pH 5.5 PBS): 45.73 ± 0.23 µg/mL
- equilibrium solubility ([1]; pH 5.8 PBS): 70.52 ± 1.28 µg/mL
- equilibrium solubility ([1]; pH 6.0 PBS): 144.54 ± 0.77 µg/mL
- equilibrium solubility ([1]; pH 6.8 PBS): 1388.16 ± 90.95 µg/mL
- equilibrium solubility ([1]; pH 7.4 PBS): 4507.97 ± 487.04 µg/mL
- Ka (absorption rate constant) [2, 8]: 4.27 ± 1.53 ×10^−3 min
- P (cumulative absorption percentage) [2, 8]: 45.48 ± 9.33%
- Q (absorption dose in 2 hours) [2, 8]: 324.42 ± 65.21 μg/2 h
- Ka (absorption rate constant) [2, 9]: 7.57 ± 2.56 ×10^−3 min
- P (cumulative absorption percentage) [2, 9]: 65.23 ± 11.80%
- Q (absorption dose in 2 hours) [2, 9]: 1603.03 ± 289.37 μg/2 h
- Ka (absorption rate constant) [2, 10]: 9.53 ± 4.22 ×10^−3 min
- P (cumulative absorption percentage) [2, 10]: 71.68 ± 13.48%
- Q (absorption dose in 2 hours) [2, 10]: 1809.26 ± 369.52 μg/2 h
- Ka (absorption rate constant) [2, 11]: 18.87 ± 2.94 ×10^−3 min
- P (cumulative absorption percentage) [2, 11]: 90.27 ± 3.28%
- Q (absorption dose in 2 hours) [2, 11]: 1063.39 ± 75.81 μg/2 h
- Ka (absorption rate constant) [2, 12]: 9.53 ± 4.22 ×10^−3 min
- P (cumulative absorption percentage) [2, 12]: 71.68 ± 13.48%
- Q (absorption dose in 2 hours) [2, 12]: 1809.26 ± 369.52 μg/2 h
- Ka (absorption rate constant) [2, 13]: 5.50 ± 0.36 ×10^−3 min
- P (cumulative absorption percentage) [2, 13]: 53.25 ± 2.77%
- Q (absorption dose in 2 hours) [2, 13]: 2636.52 ± 137.86 μg/2 h
- relationship between absorption and concentration ([2]; rat jejunum, y=20.34x+649.7, r=0.9869): good linear relationship
- absorption percentages ([2]; rat, both jejunum and ileum): > 50%
- LogP ([3]; buffer pH 2.0): ∞
- LogP ([3]; buffer pH 4.5): 4.19
- LogP ([3]; buffer pH 5.0): 3.80
- LogP ([3]; buffer pH 6.0): 2.52
- LogP ([3]; buffer pH 6.8): 0.98
- LogP ([3]; buffer pH 7.4): 0.11
- relationship of uptake amounts with uptake time (Caco-2 cells [4]; Y=0.204x+6.107, r=0.9952): linear relationship with the uptake time
- relationship of uptake amounts with concentration (Caco-2 cells [4]; y=40.59x−10.47, r=0.9994): linear relationship with the concentration
- apparent permeability coefficient (Papp) (Caco-2 cells [5]; all Papps under various conditions): > 1 ×10⁻⁶ cm/s
- ER (efflux rate) (Caco-2 cells [5]; concentration 0.5 mg/mL): 1.94
- Papp A-B (Caco-2 cells [5]; concentration 0.5 mg/mL): 2.59 ± 0.17 ×10^−6 cm/s
- Papp B-A (Caco-2 cells [5]; concentration 0.5 mg/mL): 5.02 ± 0.50 ×10^−6 cm/s
- ER (efflux rate) (Caco-2 cells [5]; concentration 0.75 mg/mL): 1.62
- Papp A-B (Caco-2 cells [5]; concentration 0.75 mg/mL): 4.00 ± 0.15 ×10^−6 cm/s
- Papp B-A (Caco-2 cells [5]; concentration 0.75 mg/mL): 6.46 ± 0.71 ×10^−6 cm/s
- ER (efflux rate) (Caco-2 cells [5]; concentration 1.0 mg/mL): 1.82
- Papp A-B (Caco-2 cells [5]; concentration 1.0 mg/mL): 4.98 ± 0.16 ×10^−6 cm/s
- Papp B-A (Caco-2 cells [5]; concentration 1.0 mg/mL): 9.07 ± 0.35 ×10^−6 cm/s
- absolute bioavailability ([6]; based on AUC0-t of crude drug): 56.8%
- absolute bioavailability ([6]; based on AUC0-t of total main metabolites in vivo): 93.0%
- water dissolution rate [7]: 6.5 µg/mL
